US10966426B2, “Herbicidal compositions comprising phenylpyrimidines” (BASF SE, priority 2016, dated 2021)
“And” between values parts separate entries of the source, which are not always exact repeats. Equal entries are not always repeated.

What was measured:
Type in all cases: in vivo
[1] = tested on: Apera spica-venti; experiment: greenhouse post-emergence treatment, APESV
Summary of the method: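 Scale 0–100 damage rating (100 = complete destruction of above-ground parts, 0 = normal growth), read 2 to 4 weeks after post-emergence application of aqueous spray liquor to plants 3–15 cm tall.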

[2] = tested on: Galium aparine; experiment: greenhouse pre-emergence treatment, GALAP
Summary of the method: (§1)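 Seeds were sown per species in pots of loamy sand with about 3.0% humus, sprayed with the aqueous spray liquor directly after sowing, watered and hooded until rooted, then kept at 10-25° C. or 20-35° C. for 2 to 4 weeks. Damage was scored 0 (none) to 100 (no emergence/complete destruction).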

[3] = tested on: Helianthus annuus; experiment: greenhouse pre-emergence treatment, HELAN; details: HELAN
Summary of the method: as §1

[4] = tested on: Polygonum convolvulus; experiment: greenhouse pre-emergence treatment, POLCO
Summary of the method: as §1

[5] = tested on: Papaver rhoeas; experiment: greenhouse pre-emergence treatment, PAPRH
Summary of the method: as §1

[6] = tested on: Polygonum aviculare; experiment: greenhouse post-emergence treatment, POLAV
Summary of the method: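 Seeds sown per species in pots of loamy sand; seedlings either grown in place or transplanted days before treatment. Post-emergence spray of water-based liquor at 3–15 cm height. Injury rated 0–100 over 2 to 4 weeks.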

[7] = tested on: Matricaria chamomilla; experiment: greenhouse post-emergence treatment, MATCH
Summary of the method: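 Each species was grown separately and treated once it reached 3 to 15 cm, using actives suspended or emulsified in water. Plants were kept at 10-25° C. or 20-35° C., depending on species. Damage is a 0–100 rating taken during 2 to 4 weeks.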

[8] = 20 DAT, Ex. 26 solo 31.25 gai/ha
[9] = 20 DAT, Ex. 26 solo 62.5 gai/ha
[10] = Ex. 26 solo, 62.5 gai/ha, 20 DAT
[11] = Ex. 26 solo, 125 gai/ha, 20 DAT
[12] = 20 DAT, solo Ex. 26 62.5 gai/ha
[13] = Ex. 26 solo 31.25 gai/ha, 20 DAT
[14] = Ex. 26 solo 62.5 gai/ha, 20 DAT

COC(=O)c1nc(C2CC2)ncc1-c1ccc(F)cc1Cl [Ex. 26]
% activity ([1]; APESV, Ex. 26 solo 250 gai/ha, 20 DAT): 75%
% activity ([1]; Ex. 26 solo 62.5 gai/ha, 20 DAT, APESV): 60%
% activity ([1]; Ex. 26 solo 125 gai/ha, 20 DAT, APESV): 70%
% activity ([1]; Ex. 26 solo 250 gai/ha, 20 DAT, APESV): 75%
% activity [2, 8]: 0%
% activity [2, 9]: 0%
% activity ([2]; 20 DAT, Ex. 26 solo 125 gai/ha): 0%
% activity ([2]; 20 DAT, GALAP, Ex. 26 solo 31.25 gai/ha): 0%
% activity ([2]; 20 DAT, GALAP, Ex. 26 solo 62.5 gai/ha): 0%
% activity ([2]; 20 DAT, GALAP, Ex. 26 solo 125 gai/ha): 0%
% activity ([2]; 20 DAT, GALAP, Ex. 26 solo 250 gai/ha): 0%
% activity ([2]; Ex. 26 solo, 31.25 gai/ha, 20 DAT, GALAP): 0%
% activity ([2]; Ex. 26 solo, 62.5 gai/ha, 20 DAT, GALAP): 0%
% activity ([2]; Ex. 26 solo, 125 gai/ha, 20 DAT, GALAP): 0%
% activity ([2]; GALAP, 20 DAT, solo Ex. 26 125 gai/ha): 0%
% activity ([2]; GALAP, Ex. 26 solo 62.5 gai/ha, 20 DAT): 0%
% activity ([2]; GALAP, Ex. 26 solo 125 gai/ha, 20 DAT): 0%
% activity ([2]; GALAP, Ex. 26 solo 250 gai/ha, 20 DAT): 0%
% activity [3, 8]: 0%
% activity [3, 9]: 20%
% activity ([3]; 20 DAT, Ex. 26 solo 125 gai/ha): 0%
% activity ([3]; 21 DAT, Ex. 26 solo 125 gai/ha): 0%
% activity ([3]; 21 DAT, Ex. 26 solo 250 gai/ha): 0%
% activity ([3]; Ex. 26 solo 125 gai/ha, 21 DAT): 0%
% activity ([3]; Ex. 26 solo 250 gai/ha, 21 DAT): 0%
% activity [3, 10]: 0%
% activity [3, 11]: 0%
% activity [3, 12]: 0%
% activity [3, 13]: 0%
% activity [3, 14]: 0%
% activity ([3]; Ex. 26 solo 125 gai/ha, 20 DAT): 0%
% activity [4, 9]: 0%
% activity ([4]; 20 DAT, Ex. 26 solo 125 gai/ha): 0%
% activity ([4]; 20 DAT, POLCO, Ex. 26 solo 31.25 gai/ha): 0%
% activity ([4]; 20 DAT, POLCO, Ex. 26 solo 62.5 gai/ha): 0%
% activity ([4]; 20 DAT, POLCO, Ex. 26 solo 125 gai/ha): 0%
% activity ([4]; 20 DAT, POLCO, Ex. 26 solo 250 gai/ha): 30%
% activity ([4]; Ex. 26 solo 62.5 gai/ha, 20 DAT, POLCO): 0%
% activity ([4]; Ex. 26 solo 125 gai/ha, 20 DAT, POLCO): 0%
% activity ([4]; Ex. 26 solo, 62.5 gai/ha, 20 DAT, POLCO): 0%
% activity ([4]; Ex. 26 solo, 125 gai/ha, 20 DAT, POLCO): 0%
% activity ([4]; POLCO, 20 DAT, solo Ex. 26 62.5 gai/ha): 0%
% activity ([4]; POLCO, 20 DAT, solo Ex. 26 125 gai/ha): 0%
% activity ([4]; POLCO, Ex. 26 solo 125 gai/ha, 20 DAT): 0%
% activity ([4]; POLCO, Ex. 26 solo 250 gai/ha, 20 DAT): 30%
% activity [5, 8]: 0%
% activity [5, 9]: 0%
% activity ([5]; 20 DAT, Ex. 26 solo 125 gai/ha): 30%
% activity [5, 12]: 0%
% activity [5, 13]: 0%
% activity [5, 14]: 0%
% activity ([5]; Ex. 26 solo 125 gai/ha, 20 DAT): 0% and 30%
% activity ([5]; Ex. 26 solo, 31.25 gai/ha, 20 DAT): 0%
% activity [5, 10]: 0%
% activity [5, 11]: 0%
% activity [6, 9]: 75%
% activity ([6]; 20 DAT, Ex. 26 solo 125 gai/ha): 85%
% activity ([6]; Ex. 26 solo 62.5 gai/ha, 20 DAT, POLAV): 85%
% activity ([6]; Ex. 26 solo 125 gai/ha, 20 DAT, POLAV): 90%
% activity ([6]; Ex. 26 solo, 125 gai/ha, 20 DAT, POLAV): 85%
% activity ([6]; POLAV, 21 DAT, solo Ex. 26 125 gai/ha): 90%
% activity [7, 9]: 0%
% activity ([7]; 20 DAT, Ex. 26 solo 125 gai/ha): 0%
% activity ([7]; 20 DAT, Ex. 26 solo 250 gai/ha): 0%
% activity ([7]; 20 DAT, MATCH, Ex. 26 solo 62.5 gai/ha): 0%
% activity ([7]; 20 DAT, MATCH, Ex. 26 solo 125 gai/ha): 0%
% activity ([7]; 20 DAT, MATCH, Ex. 26 solo 250 gai/ha): 0%
% activity ([7]; 21 DAT, Ex. 26 solo 250 gai/ha): 0%
% activity ([7]; Ex. 26 solo 62.5 gai/ha, 20 DAT, MATCH (pyridate table)): 0%
% activity ([7]; Ex. 26 solo 62.5 gai/ha, 20 DAT, MATCH (pyroxsulam table)): 0%
% activity ([7]; Ex. 26 solo 125 gai/ha, 20 DAT, MATCH (pyridate table)): 0%
% activity ([7]; Ex. 26 solo 125 gai/ha, 20 DAT, MATCH (pyroxsulam table)): 0%
% activity ([7]; Ex. 26 solo 250 gai/ha, 20 DAT, MATCH (pyridate table)): 0%
% activity ([7]; Ex. 26 solo 250 gai/ha, 20 DAT, MATCH (pyroxsulam table)): 30%
% activity ([7]; Ex. 26 solo 250 gai/ha, 21 DAT, MATCH): 0%
% activity ([7]; Ex. 26 solo, 125 gai/ha, 20 DAT, MATCH): 0%
% activity ([7]; Ex. 26 solo, 250 gai/ha, 20 DAT, MATCH): 0%
% activity ([7]; Ex. 26 solo, 250 gai/ha, 21 DAT, MATCH): 20%
% activity ([7]; MATCH, 21 DAT, solo Ex. 26 62.5 gai/ha): 0%
% activity ([7]; MATCH, Ex. 26 solo 62.5 gai/ha, 20 DAT): 0%
